According to US20250344731A1, “SALTY TASTE/UMAMI ENHANCER” (AJINOMOTO CO., INC., priority 2023, published 2025):

Columns and labels:
[1] = Sensory evaluation of umami enhancement function, naringenin/naringin added to sodium aspartate umami solution (Example 2); details: 30 ppm added to NC2 (Asp-Na, sodium aspartate 0.2%); for umami intensity (points): NC2 = 0.10 point; for degree of umami enhancement (times): relative to NC2
Method: (§1) As shown in Table 4: Umami solution (weight g/100 g), an umami solution was prepared. Water at ordinary temperature was used for preparation. Water, naringenin (Penta manufacturing) or naringin (IKEDA CORPORATION) were weighed and added to each of the prepared umami solutions or water at various concentrations shown in Table 5: Prepared sensory evaluation samples. The umami intensity of each sample was blindly evaluated using a scoring system in 0.01 point increments, with the umami intensity of water in test plot 1 as 0 point, the umami intensity of NC in test plot 3 as 0.30 points, and the umami intensity of NC2 in test plot 4 as 0.10 point. The evaluation was performed by a trained panel of three, and the average score of each panel was used. Samples whose umami intensity was enhanced by 1.5 times or more (sodium glutamate 0.45 points or more, sodium aspartate 0.15 points or more) due to the addition were evaluated to “have an umami enhancement function”. In addition, the presence or absence, and intensity of off-taste (bitterness and harsh taste other than umami) were also evaluated. The evaluation results are shown in Table 6: Sensory evaluation (umami intensity).

[2] = Sensory evaluation of saltiness enhancement function, naringenin/naringin added to NaCl aqueous solution (Example 1); details: 30 ppm added to water (NaCl 0%); scale NC 0.8% NaCl = 1.00, PC 0.9% NaCl = 5.5; panel of three, average
[3] = Sensory evaluation of umami enhancement function, naringenin/naringin added to sodium glutamate umami solution or water (Example 2); details: for umami enhancement function: addition to umami solution (sodium glutamate, sodium aspartate), 30 ppm, function = 1.5 times or more
Method: as §1

[4] = Sensory evaluation of saltiness enhancement function, naringenin/naringin added to NaCl aqueous solution (Example 1); details: for saltiness intensity: scale NC = 1.00, PC 0.9% NaCl = 5.5; for saltiness enhancement function: addition of 1 ppm or more to salt water, function = saltiness intensity 1.8 points or more
Method: As shown in Table 1: NaCl aqueous solution (weight g/100 g), various NaCl aqueous solutions (saline solutions) were prepared. Filtered water at ordinary temperature was used for preparation. Water, naringenin (Penta Manufacturing), or naringin (IKEDA CORPORATION) were weighed and added to the prepared 0.8% aqueous solution at various concentrations shown in Table 2: Prepared sensory evaluation samples. The saltiness intensity of each sample was blindly evaluated using a scoring system in 0.1 point increments, with the saltiness intensity of NC in test plot 1 as 1.00 point and the saltiness intensity of PC in test plot 2 as 5.5 points. The evaluation was performed by a trained panel of three, and the average score of each panel was used. Samples with a saltiness intensity of 1.8 points or more (NaCl 0.84% or more) due to the addition were evaluated to “have a saltiness enhancement function”. In addition, the presence or absence, and intensity of off-taste (bitterness and harsh taste other than saltiness) were also evaluated. The evaluation results are shown in Table 3: Sensory evaluation (saltiness intensity).

[5] = Sensory evaluation of umami enhancement function, naringenin-related flavonoid components in umami solution (Example 4); details: for degree of umami enhancement (times) / umami intensity (points): 30 ppm in NC (sodium glutamate 0.1%); for degree of umami enhancement (times): relative to NC; for umami intensity (points): scale water = 0, NC = 0.30, panel of three, average
Method: • 1) The five naringenin-related flavonoid components evaluated in Example 3 were used. • 2) Quercetin was used as the control component. Umami solutions were prepared as shown in Table 10: Umami solution (weight g/100 g). Water at ordinary temperature was used for preparation. Each naringenin-related flavonoid component and the like dissolved in propylene glycol (SIGMA) at 10000 ppm was added to the prepared 0.1% umami aqueous solution such that the concentration at the time of eating was 30 ppm (Table 11). The umami intensity of each sample was blindly evaluated using a scoring system in 0.05 point increments, with the umami intensity of water in test plot 1 as 0 point and the umami intensity of NC in test plot 2 as 0.30 points. The evaluation was performed by a trained panel of three, and the average score was used. The umami enhancement function of samples whose umami intensity was enhanced by 1.5 times or more (sodium glutamate 0.45 points or more) due to the addition was evaluated to be functional. In addition, the presence or absence, and intensity of off-taste (bitterness and harsh taste other than umami) were also evaluated. The evaluation results are shown in Table 12: Sensory evaluation (umami intensity).

[6] = Sensory evaluation of saltiness enhancement function, naringenin-related flavonoid components in NaCl aqueous solution (Example 3); details: for saltiness intensity: 30 ppm in NC salt water (NaCl 0.8%), scale NC = 1.0, PC1 0.9% = 2.0, PC2 1.0% = 3.0, panel of three, average
Text: 1) The following flavonoid components were used as naringenin-related flavonoid components: • Luteolin (manufactured by Salus Nutra Inc.), pinocembrin (manufactured by Xi'an Demeter Biotech Co., Ltd.), liquiritigenin (manufactured by Xi'an Julong Import and Export Co., Ltd.), apigenin (manufactured by Xi'an Best Bio-Tech Co., Ltd.), and acacetin (manufactured by Xi'an Reain Biotechnology Co., Ltd.)
2) The following compound was used as control component: Quercetin (manufactured by Medience Corporation) (structure shown below)
As shown in Table 7: NaCl aqueous solution (weight g/100 g), various NaCl aqueous solutions (saline solutions) were prepared. Water at ordinary temperature was used for preparation.
Each naringenin-related flavonoid component dissolved in propylene glycol (SIGMA) at 10000 ppm was added to the prepared 0.8% salt water solution such that the concentration at the time of eating (corresponding to the content of the present flavonoid component or a salt thereof in the oral ingestion product at the time of oral ingestion, as a flavonoid component relative to the oral ingestion product) was 30 ppm (Table 8).
The saltiness intensity of each sample was blindly evaluated using a scoring system in 0.5 point increments, with the saltiness intensity of NC in test plot 1 as 1.0 point, the saltiness intensity of PC1 as 2.0 points, and the saltiness intensity of PC2 as 3.0 points. The evaluation was performed by a trained panel of three, and the average score was used. Since the saltiness intensity of 2.0 points of PC1 is evaluated to be clearly stronger in saltiness than NC, samples with a saltiness intensity of 1.5 points or more (NaCl 0.85% or more) were evaluated to have a saltiness enhancement function. In addition, the presence or absence, and intensity of off-taste (bitterness and harsh taste other than saltiness) were also evaluated. The evaluation results are shown in Table 9: Sensory evaluation (saltiness intensity).

[7] = 30 ppm added to NC1 (MSG, sodium glutamate 0.1%), NC1 = 0.30 points
[8] = 30 ppm added to NC1 (MSG, sodium glutamate 0.1%), relative to NC1
[9] = 30 ppm added to water, scale water = 0, NC1 = 0.30, NC2 = 0.10
[10] = 1 ppm added to NC salt water (NaCl 0.8%)
[11] = 10 ppm added to NC salt water (NaCl 0.8%)
[12] = 30 ppm added to NC salt water (NaCl 0.8%)

In the case of `O=C1C[C@@H](c2ccc(O)cc2)Oc2cc(O)cc(O)c21` (stereo in doubt) [Naringenin, 5,7-dihydroxy-2-(4-hydroxyphenyl)chroman-4-one], the “umami intensity (points)” value [1] is reported as 0.20 points, the “degree of umami enhancement (times)” value [1] is reported as 2.0 times and the saltiness intensity [2] is reported as 0 points. The “umami intensity (points)” value [3, 7] was 0.47 points, the “degree of umami enhancement (times)” value [3, 8] was 1.6 times and the “degree of umami enhancement (times)” value ([3]; 30 ppm added to water) was 0 times. The “umami intensity (points)” value [3, 9] was 0.00 points, the umami enhancement function [3] was “showed an umami enhancement function” and the saltiness intensity [4, 10] was 1.9 points. For the same molecule, the saltiness intensity ([4]; 5 ppm added to NC salt water (NaCl 0.8%)) was 2.4 points, the saltiness intensity [4, 11] was 3.0 points and the saltiness intensity [4, 12] was 2.9 points. For the same molecule, the saltiness enhancement function [4] was “showed a saltiness enhancement function”.

With `COc1ccc(-c2cc(=O)c3c(O)cc(O)cc3o2)cc1` [Acacetin, 5,7-dihydroxy-4-methoxyflavone] the “degree of umami enhancement (times)” value [5] was 1.67 times, the “umami intensity (points)” value [5] was 0.50 points and the saltiness intensity [6] was 3.5 points.

For `O=c1cc(-c2ccc(O)cc2)oc2cc(O)cc(O)c12` [Apigenin, 5,7-dihydroxy-2-(4-hydroxyphenyl)-4H-1-benzopyran-4-one], the “degree of umami enhancement (times)” value [5] was 1.87 times, the “umami intensity (points)” value [5] was 0.56 points and the saltiness intensity [6] was 3.5 points.

With `O=C1C[C@@H](c2ccc(O)cc2)Oc2cc(O)ccc21` [Liquiritigenin, (2S)-4′,7-dihydroxyflavan-4-one] the “degree of umami enhancement (times)” value [5] was 1.87 times, the “umami intensity (points)” value [5] was 0.56 points and the saltiness intensity [6] was 3.5 points.

For `O=c1cc(-c2ccc(O)c(O)c2)oc2cc(O)cc(O)c12` [Luteolin, 2-(3,4-dihydroxyphenyl)-5,7-dihydroxy-4-chromenone], the “degree of umami enhancement (times)” value [5] was 1.43 times, the “umami intensity (points)” value [5] was 0.43 points and the umami enhancement effect ([5]; 30 ppm in umami solution (sodium glutamate 0.1%), functional = 1.5 times or more) was “tendency to enhance umami”. It also gave a saltiness intensity [6] of 2.0 points.

For `C[C@@H]1O[C@@H](O[C@H]2[C@H](Oc3cc(O)c4c(c3)O[C@H](c3ccc(O)cc3)CC4=O)O[C@H](CO)[C@@H](O)[C@@H]2O)[C@H](O)[C@H](O)[C@H]1O` [Naringin, naringin, reference compound], the “umami intensity (points)” value [1] was 0.12 points, the “degree of umami enhancement (times)” value [1] was 1.2 times and the saltiness intensity [2] was 0 points. For the same molecule, the “umami intensity (points)” value [3, 7] was 0.35 points, the “degree of umami enhancement (times)” value [3, 8] was 1.2 times and the “degree of umami enhancement (times)” value ([3]; 30 ppm added to water) was 0 times. For the same molecule, the “umami intensity (points)” value [3, 9] was 0.00 points, the umami enhancement function [3] was “no enhancement of the umami intensity was observed” and the saltiness intensity [4, 10] was 1.8 points. For the same molecule, the saltiness intensity [4, 11] was 2.1 points, the saltiness intensity [4, 12] was 2.2 points and the saltiness enhancement function [4] was “also showed a saltiness enhancement function”.

With `O=C1CC(c2ccccc2)Oc2cc(O)cc(O)c21` (stereo not drawn) [Pinocembrin, 5,7-dihydroxy-2-phenyl-2,3-dihydro-4H-chromene-4-one] the “degree of umami enhancement (times)” value [5] was 1.67 times, the “umami intensity (points)” value [5] was 0.50 points and the saltiness intensity [6] was 2.0 points.

In the case of `O=c1c(O)c(-c2ccc(O)c(O)c2)oc2cc(O)cc(O)c12` [Quercetin, reference compound], the “degree of umami enhancement (times)” value [5] is reported as 1.00 times, the “umami intensity (points)” value [5] is reported as 0.30 points and the saltiness intensity [6] is reported as 1.3 points. For the same molecule, the saltiness enhancement effect ([6]; 30 ppm in salt water (NaCl 0.8%), function = 1.5 points or more) was “did not show a saltiness enhancement effect”.
